Measurements published in PubChem BioAssay (NCI).
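These data come from cells grown in 96-well plates and exposed to compound for 48 hours at five concentrations. At the GI50, growth is halved. TGI is the concentration that stops growth completely.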

Experiments:
Experiment in all cases: DTP human tumour cell line panel, 48 h
DLD-1 colon = tested on: DLD-1 colon
HOP-18 NSCLC = tested on: HOP-18 NSCLC
T-47D breast = tested on: T-47D breast
PC-3 prostate = tested on: PC-3 prostate
DU-145 prostate = tested on: DU-145 prostate
MDA-N = tested on: MDA-N
LXFL 529 NSCLC = tested on: LXFL 529 NSCLC

SMILES | TGI (DLD-1 colon) [µM] | GI50 (T-47D breast) [µM] | TGI (T-47D breast) [µM] | GI50 (PC-3 prostate) [µM] | TGI (PC-3 prostate) [µM] | GI50 (DU-145 prostate) [µM] | TGI (DU-145 prostate) [µM] | other results
CC(=O)NC1=C(C)C(=O)c2c(nc3n2CCC3O)C1=N (centres undefined) | 25.1 | – | – | – | – | – | – | TGI (HOP-18 NSCLC): 31.8 µM
COC(=O)CNC(=O)[C@@H](OC)[C@@H]1Cc2cc3cc(OC4CC(OC5CC(O)C(O)C(C)O5)C(O)C(C)O4)c(C)c(O)c3c(O)c2C(=O)[C@H]1OC1CC(OC2CC(OC3CC(C)(O)C(O)C(C)O3)C(O)C(C)O2)C(O)C(C)O1 (some centres undefined) | – | 0.256 | > 50 | 0.234 | > 50 | 0.208 | > 50 | –
NC(C(=O)[O-])C(=O)[O-].NC1CCCCC1N.[Pt+4] | – | – | – | 4.67 | > 100 | – | – | GI50 (MDA-N): 7.47 µM; TGI (MDA-N): > 100 µM
COc1cc(Nc2nc(N[C@H]3CCCC[C@@H]3N)nc3cc[nH]c(=O)c23)cc(OC)c1 | – | 12.8 | 30.2 | 2.53 | 20.8 | 0.74 | 15.3 | –
CN(CCOc1ccc(C#N)cc1)CCOc1ccc(C#N)cc1 | – | > 100 | > 100 | 41.6 | > 100 | 90 | > 100 | –
Cn1ccnc1C(=O)/C=C/c1ccc(CC(=O)Nc2ccccc2)cc1 | – | 5.23 | > 25 | 3.29 | 8.55 | 1.1 | 4.03 | –
CCC(CC)n1c(C)nc2c1C(=O)c1ccccc1C2=O | > 100 | – | – | – | – | – | – | TGI (LXFL 529 NSCLC): > 100 µM
CN(C)c1ccc2cc(-c3ccccc3F)c(N)nc2c1 | – | 1.26 | 13.6 | 2.21 | 15.2 | 3.09 | 13.2 | –
CC(C)C1CC(O)O[C@@H]([C@@H](C)[C@H]2CC(=O)[C@@H]3[C@@H]4[C@@H](O)[C@H](O)[C@H]5[C@@H](O)[C@H](O)CC[C@]5(C)[C@H]4CC[C@]23C)C1 (some centres undefined) | > 100 | – | – | – | – | – | – | TGI (LXFL 529 NSCLC): > 100 µM
CCN(Cc1ccccc1OC)c1ccc(CO)c(Cl)c1 | – | 0.091 | 0.685 | 12.3 | 27.9 | 15.8 | 33.4 | –
Fc1cccc(COc2ccc(Nc3ncnc4cc(-c5ccc[nH]5)sc34)cc2Cl)c1 | – | 0.0977 | 7.35 | 0.77 | > 15.7 | 3.34 | > 16.4 | –
CC12CCC(=O)C=C1CCC1C2C(O)CC2(C)C(c3csc(N)n3)CCC12 (centres undefined) | – | – | > 100 | – | > 100 | – | > 100 | TGI (MDA-N): > 100 µM
NNC(=O)CCC(=O)NC1C2CC3CC(C2)CC1C3 (centres undefined) | > 100 | – | – | – | – | – | – | TGI (LXFL 529 NSCLC): > 100 µM
NC(=O)N1N=C2c3ccccc3SC[C@H]2[C@@H]1c1ccccc1 | 91 | – | – | – | – | – | – | TGI (LXFL 529 NSCLC): 94.2 µM
O=C(CSC(=S)N1CCOCC1)Nc1nc2c(s1)CCCC2 | > 100 | – | – | – | – | – | – | TGI (LXFL 529 NSCLC): > 100 µM
O=C1/C(=C/c2ccc(O)cc2)COc2ccc(-c3ccccc3)cc21 | – | 3.76 | 25.6 | 5.09 | > 63.9 | 4.09 | 14.6 | –
COc1ccc(-c2cncn2-c2ccc(OC)cc2)cc1 | – | – | – | 30 | > 100 | 14.9 | 32.5 | –

SMILES | TGI (DLD-1 colon) [µM] | GI50 (T-47D breast) [µM] | TGI (T-47D breast) [µM] | GI50 (PC-3 prostate) [µM] | TGI (PC-3 prostate) [µM] | GI50 (DU-145 prostate) [µM] | TGI (DU-145 prostate) [µM] | other results
CC/C=C\C/C=C\C/C=C\CCCCCCCC(=O)OCC | > 100 | – | – | – | – | – | – | TGI (HOP-18 NSCLC): > 100 µM; TGI (LXFL 529 NSCLC): > 100 µM
CC(=O)OC1c2ccccc2CCCCCCC12OCCO2 (centres undefined) | > 100 | – | – | – | – | – | – | TGI (HOP-18 NSCLC): > 100 µM
CC1C(=O)C(C)C(c2ccccc2)N(N=O)C1c1ccccc1 (centres undefined) | > 1000 | – | 311 | – | 754 | – | 567 | GI50 (DLD-1 colon): > 1000 µM; TGI (MDA-N): 306 µM; GI50 (HOP-18 NSCLC): > 1000 µM; TGI (HOP-18 NSCLC): > 1000 µM; TGI (LXFL 529 NSCLC): > 1000 µM
CCCCn1cnc2c(SC)ncnc21 | – | – | > 100 | – | > 100 | – | > 100 | TGI (MDA-N): > 100 µM
c1cnc2[nH]cc(-c3csc(-c4cn(CCCCN5CCOCC5)c5ccccc45)n3)c2c1 | – | 1.33 | 3.9 | 1.59 | 4.01 | 2.12 | 4.28 | –
CCC12CCCC(=O)N1C(CO)C(c1ccccc1)O2 (centres undefined) | > 100 | – | – | – | – | – | – | TGI (HOP-18 NSCLC): > 100 µM
COc1ccc2c(c1)OC(N(C(C)=O)C(C)=O)=C(C#N)C2c1ccc(F)cc1 (centres undefined) | – | 4.98 | > 100 | 2.2 | > 100 | 2.85 | > 100 | –
COc1cc(CNc2ccc(C(C)C)cc2)cc(OC)c1OC | 48.8 | – | – | – | – | – | – | TGI (HOP-18 NSCLC): 74.1 µM; TGI (LXFL 529 NSCLC): 48.7 µM
O=C1C(Cl)=C(Nc2cccc(O)c2)C(=O)N1c1cc(Cl)c(Cl)cc1Cl | – | 42.1 | > 100 | 15.2 | 31.6 | 17.4 | 39.3 | –
CC[C@H](CC#N)OC(=O)N[C@@H](C)c1cccc(NC(=O)Nc2ccc(-c3cnco3)c(OC)c2)c1 | – | 0.165 | 21.4 | 0.0741 | 31.4 | 0.0672 | 39.3 | –
N[C@H](C(=O)O)[C@H](Cl)CC(=O)O | > 100 | – | – | – | – | – | – | TGI (HOP-18 NSCLC): > 100 µM; TGI (LXFL 529 NSCLC): > 100 µM
COc1ccc2c3c(c(=O)n(C)c2c1OC)C=CC(C)(C)O3 | – | – | > 100 | – | > 100 | – | > 100 | TGI (MDA-N): 62.2 µM
COc1cc[nH]c1/C=C1\C(=O)Nc2ccc(F)c(I)c21 | – | > 25 | > 25 | > 25 | > 25 | > 25 | > 25 | –
C[C@@H]1COCCN1c1cc(C2(S(C)(=N)=O)CC2)nc(-c2ccnc3[nH]ccc23)n1 (some centres undefined) | – | 3.15 | 19.5 | 12.8 | 74.2 | 3.06 | > 100 | –
CC(=O)Oc1ccc(O)c(O)c1C/C=C(\C)CC/C=C(\C)CC/C=C(\C)CCC=C(C)C | 1.41 | – | – | – | – | – | – | TGI (HOP-18 NSCLC): 0.879 µM; TGI (LXFL 529 NSCLC): 1.05 µM
CN=S(=O)(c1ccccc1)c1ccccc1 | > 100 | – | – | – | – | – | – | TGI (HOP-18 NSCLC): > 100 µM
C=C1CC[C@@H]2[C@](C)(COC(C)=O)[C@H](OC(C)=O)CC[C@@]2(C)[C@@H]1CC(Nc1ccc(S(=O)(=O)Nc2nccc(C)n2)cc1)C1=CCOC1=O (some centres undefined) | – | 2.77 | 8.33 | 4.46 | 15.7 | 3.36 | 11.8 | –
